Values quoted from earlier work as cited in patent US8198305B2, “1,2-benzisoxazol-3-yl compounds” (Concert Pharmaceuticals Inc., priority 2007, dated 2012).
Read-outs that look alike come from different tables or passages of the source.

Conditions: phase III clinical trial

SMILES: COc1cc(C(C)=O)ccc1OCCCN1CCC(c2noc3cc(F)ccc23)CC1 [iloperidone, 1-[4-[3-[4-(6-fluoro-1,2-benzisoxazol-3-yl)piperidin-1-yl]propoxy]-3-methoxyphenyl]ethanone]
- QTc prolongation (good metabolizers of iloperidone): 10.4 ms
- QTc prolongation (poor metabolizers of iloperidone): 15.0 ms
